Results on three molecules are retold here after PMC3953502 (ACS chemical biology, 2013).

In one assay the target is T1, ML-IAP (Homo sapiens, UniProt Q96CA5).
T1 sequence (Q96CA5 63-179 limits assumed): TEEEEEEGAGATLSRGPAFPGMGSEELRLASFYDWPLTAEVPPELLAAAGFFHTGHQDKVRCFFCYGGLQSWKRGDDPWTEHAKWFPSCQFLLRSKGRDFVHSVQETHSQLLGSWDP
The experiment in a line: Fluorescence polarization competition assay, ML-IAP BIR. It is filed as binding.

The next assay has as its system Ovarian Cancer Cells. The following applies: 50 ng/mL TRAIL; cited from earlier work.
Assay [1] has as its system MDA-MB-231 breast adenocarcinoma cells. The experiment in a line: MDA-MB-231 cell viability, sensitization to TRAIL. The format is cell-based. The following applies: MDA-MB-231 cells, TRAIL alone at maximum dose of 100 ng/mL.

What is called Ki is a dissociation constant, usually derived from enzyme kinetics or from competition with a known ligand. Read a low Ki as higher affinity.

In turn, `CN[C@@H](C)C(=O)N[C@H](C(=O)N1CCC[C@H]1C(=O)Nc1snnc1-c1ccccc1)C1CCCCC1` [GDC-0152] yielded a Ki on ML-IAP of 41 nM.

With `CN[C@@H](C)C(=O)N[C@H](C(=O)N1CC[C@H]2CCN(CCc3ccccc3)C[C@H]21)C1CCCCC1` [LBW242], the “increase in LBW242-induced cell death with addition of TRAIL” value with Ovarian Cancer Cells is on record as 2- to 3 fold.

B1: TRAIL: Tumor necrosis factor-related apoptosis-inducing ligand, member of the TNF family of cytokines (protein, UniProt P50591 1-281, looked up)
Tumor necrosis factor ligand …: MAMMEVQGGPSLGQTCVLIVIFTVLLQSLCVAVTYVYFTNELKQMQDKYSKSGIACFLKEDDSYWDPNDEESMNSPCWQVKWQLRQLVRKMILRTSEETISTVQEKQQNISPLVRERGPQRVAAHITGTRGRSNTLSSPNSKNEKALGRKINSWESSRSGHSFLSNLHLRNGELVIHEKGFYYIYSQTYFRFQEEIKENTKNDKQMVQYIYKYTSYPDPILLMKSARNSCWSKDAEYGLYSIYQGGIFELKENDRIFVSVTNEHLIDMDHEASFFGAFLVG
For the molecule B1, the “cells undergone cell death” value in assay [1] is recorded as 30%.
